Two compounds from PMC11354204, “Lactylation stabilizes TFEB to elevate autophagy and lysosomal activity” (The Journal of Cell Biology, 2024) can be followed below.

The target of assay [1] is T1, NDRG3 (Homo sapiens, UniProt Q9UGV2).
T1 construct: human NDRG3 in pGEX-5X-1, GST-tagged, expressed in E. coli BL21, glutathione-Sepharose
The assay is described as follows: isothermal titration calorimetry; intrinsic tryptophan fluorescence quenching. Type of assay: binding. Particulars: ITC 25 °C, 10 mM lactate into 0.5 mM NDRG3; Trp quenching with sodium lactate, 100 μM protein, 10 mM NaH2PO4 pH 7.5; non-covalent; used as positive control for TFEB. For orientation: Isothermal titration calorimetry measures the heat released or taken up as one component is titrated into another.

Assay [2] addresses T2, p300; p300-HA (Homo sapiens, UniProt Q09472).
T2 construct: gene EP300; HA-tagged p300 immunoprecipitated from transfected HEK293T cells
The assay is described as follows: in vitro lactylation of recombinant human TFEB, anti-Kla western blot. Type of assay: biochemical. To be noted: acyl donor; acceptor protein TFEB (10 μg); immunoprecipitated p300-HA; 50 mM Tris-HCl pH 8.0, 30 °C, 1 h.

Structures are written as SMILES.

T2 sequence (Q09472 2-2414): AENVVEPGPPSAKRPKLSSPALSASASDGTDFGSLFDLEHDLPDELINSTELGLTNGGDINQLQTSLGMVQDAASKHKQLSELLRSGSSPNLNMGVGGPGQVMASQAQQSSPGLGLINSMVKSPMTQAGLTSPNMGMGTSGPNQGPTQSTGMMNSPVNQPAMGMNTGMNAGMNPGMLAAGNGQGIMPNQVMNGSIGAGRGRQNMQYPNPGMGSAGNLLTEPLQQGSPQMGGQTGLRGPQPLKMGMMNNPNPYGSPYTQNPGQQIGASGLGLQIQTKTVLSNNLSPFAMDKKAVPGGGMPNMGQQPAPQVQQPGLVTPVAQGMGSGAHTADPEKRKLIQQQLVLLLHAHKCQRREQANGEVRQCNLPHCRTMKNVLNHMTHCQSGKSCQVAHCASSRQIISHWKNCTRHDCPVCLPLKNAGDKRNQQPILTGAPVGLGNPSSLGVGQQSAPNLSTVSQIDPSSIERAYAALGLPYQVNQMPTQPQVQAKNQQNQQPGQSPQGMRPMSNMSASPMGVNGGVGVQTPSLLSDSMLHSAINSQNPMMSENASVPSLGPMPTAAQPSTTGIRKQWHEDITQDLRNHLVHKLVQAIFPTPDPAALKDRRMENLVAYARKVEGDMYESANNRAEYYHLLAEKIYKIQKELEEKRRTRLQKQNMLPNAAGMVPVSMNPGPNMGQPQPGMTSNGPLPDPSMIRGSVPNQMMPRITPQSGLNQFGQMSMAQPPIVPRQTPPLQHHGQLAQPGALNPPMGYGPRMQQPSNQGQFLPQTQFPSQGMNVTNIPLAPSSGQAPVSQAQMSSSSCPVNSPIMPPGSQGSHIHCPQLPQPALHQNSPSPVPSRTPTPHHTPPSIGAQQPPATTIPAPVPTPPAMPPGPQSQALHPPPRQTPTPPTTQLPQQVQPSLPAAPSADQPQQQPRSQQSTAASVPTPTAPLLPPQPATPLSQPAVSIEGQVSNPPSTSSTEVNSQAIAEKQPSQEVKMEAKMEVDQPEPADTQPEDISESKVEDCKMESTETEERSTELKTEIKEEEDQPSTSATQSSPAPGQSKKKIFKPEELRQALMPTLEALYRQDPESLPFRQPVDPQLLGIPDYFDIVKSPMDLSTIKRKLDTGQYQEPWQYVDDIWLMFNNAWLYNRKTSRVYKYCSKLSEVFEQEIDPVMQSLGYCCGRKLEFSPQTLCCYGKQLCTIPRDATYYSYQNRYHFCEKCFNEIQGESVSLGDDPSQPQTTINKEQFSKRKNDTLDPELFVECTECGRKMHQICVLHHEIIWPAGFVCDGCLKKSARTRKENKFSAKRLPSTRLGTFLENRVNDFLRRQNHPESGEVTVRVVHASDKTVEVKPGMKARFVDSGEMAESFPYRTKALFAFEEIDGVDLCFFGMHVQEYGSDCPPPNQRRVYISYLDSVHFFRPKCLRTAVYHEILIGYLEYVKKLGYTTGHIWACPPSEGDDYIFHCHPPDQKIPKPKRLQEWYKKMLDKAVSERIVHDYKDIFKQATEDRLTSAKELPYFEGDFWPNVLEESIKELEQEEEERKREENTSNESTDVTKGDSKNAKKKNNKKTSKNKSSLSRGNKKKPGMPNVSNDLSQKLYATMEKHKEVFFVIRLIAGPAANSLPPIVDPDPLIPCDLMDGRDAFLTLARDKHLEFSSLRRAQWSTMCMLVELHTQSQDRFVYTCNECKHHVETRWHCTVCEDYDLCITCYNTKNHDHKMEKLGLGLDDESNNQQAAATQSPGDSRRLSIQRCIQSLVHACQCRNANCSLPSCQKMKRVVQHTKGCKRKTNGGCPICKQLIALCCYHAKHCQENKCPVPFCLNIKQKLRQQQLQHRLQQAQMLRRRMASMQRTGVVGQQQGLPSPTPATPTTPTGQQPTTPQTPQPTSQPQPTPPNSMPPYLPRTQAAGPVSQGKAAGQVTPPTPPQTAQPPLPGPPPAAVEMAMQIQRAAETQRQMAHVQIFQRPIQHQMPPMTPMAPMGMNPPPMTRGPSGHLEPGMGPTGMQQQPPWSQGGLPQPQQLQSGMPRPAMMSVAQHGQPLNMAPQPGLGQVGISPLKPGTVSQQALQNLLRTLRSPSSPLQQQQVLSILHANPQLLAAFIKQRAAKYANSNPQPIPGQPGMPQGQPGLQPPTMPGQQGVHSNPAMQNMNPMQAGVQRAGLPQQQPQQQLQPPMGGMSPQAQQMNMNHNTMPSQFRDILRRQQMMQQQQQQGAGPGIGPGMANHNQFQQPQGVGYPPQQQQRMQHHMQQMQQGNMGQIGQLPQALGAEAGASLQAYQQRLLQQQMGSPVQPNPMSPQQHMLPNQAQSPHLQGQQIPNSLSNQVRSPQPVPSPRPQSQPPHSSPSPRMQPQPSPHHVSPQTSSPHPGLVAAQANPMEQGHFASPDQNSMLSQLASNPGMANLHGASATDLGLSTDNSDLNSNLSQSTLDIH
T1 sequence (Q9UGV2 whole entry): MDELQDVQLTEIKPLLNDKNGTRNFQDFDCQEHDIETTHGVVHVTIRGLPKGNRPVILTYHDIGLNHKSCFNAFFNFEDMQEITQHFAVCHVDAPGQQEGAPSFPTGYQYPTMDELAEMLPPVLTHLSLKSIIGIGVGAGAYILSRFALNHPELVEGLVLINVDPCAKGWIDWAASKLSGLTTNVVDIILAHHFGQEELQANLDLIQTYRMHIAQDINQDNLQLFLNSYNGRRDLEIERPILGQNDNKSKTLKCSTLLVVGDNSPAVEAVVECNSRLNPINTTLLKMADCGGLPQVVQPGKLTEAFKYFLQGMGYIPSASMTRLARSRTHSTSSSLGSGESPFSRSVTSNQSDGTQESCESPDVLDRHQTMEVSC

Regarding `C[C@H](O)C(=O)O` [lactate], the “isothermal titration calorimetry; intrinsic tryptophan fluorescence quenching” value in assay [1] is “sodium lactate resulted in the fixed tryptophan fluorescence quenching of purified NDRG3”.
On to `C[C@H](O)C(=O)SCCNC(=O)CCNC(=O)[C@H](O)C(C)(C)COP(=O)(O)OP(=O)(O)OC[C@H]1O[C@@H](n2cnc3c(N)ncnc32)[C@H](O)[C@@H]1OP(=O)(O)O` [L-lactyl-CoA], for which the “in vitro lactylation of recombinant human TFEB, anti-Kla western blot” value in assay [2] is listed as “lactylation was observed in TFEB incubated with p300-HA instead of transferase-inactivated p300-WY-HA”.
